Key:
Rho kinase 2 = Rho kinase 2 (Homo sapiens, UniProt O75116); assay: In vitro Rho kinase inhibitory activity assay (ADP-Glo kit, Myelin Basic Protein substrate); format: biochemical; conditions: 10 μM ATP, 25° C., read-out: ROCK2 inhibitory activity (Ki, range of activity)
How it was run: (§1)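 Kinase activity is measured as ADP production (ADP-Glo, luminescence) after 1 hour at 25 °C with 10 μM ATP and 2.5 μM Myelin Basic Protein, following 30 min enzyme–compound preincubation. Buffer is 40 mM Tris pH7.5, 20 mM MgCl2, 0.1 mg/ml BSA, 50 μM DTT.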

Rho kinase 1 = Rho kinase 1 (Homo sapiens, UniProt Q13464); assay: as above; format: biochemical; conditions: 10 μM ATP, 25° C., read-out: ROCK1 inhibitory activity (Ki, range of activity)
How it was run: as §1

Chain of Rho kinase 1 (Q13464 whole entry): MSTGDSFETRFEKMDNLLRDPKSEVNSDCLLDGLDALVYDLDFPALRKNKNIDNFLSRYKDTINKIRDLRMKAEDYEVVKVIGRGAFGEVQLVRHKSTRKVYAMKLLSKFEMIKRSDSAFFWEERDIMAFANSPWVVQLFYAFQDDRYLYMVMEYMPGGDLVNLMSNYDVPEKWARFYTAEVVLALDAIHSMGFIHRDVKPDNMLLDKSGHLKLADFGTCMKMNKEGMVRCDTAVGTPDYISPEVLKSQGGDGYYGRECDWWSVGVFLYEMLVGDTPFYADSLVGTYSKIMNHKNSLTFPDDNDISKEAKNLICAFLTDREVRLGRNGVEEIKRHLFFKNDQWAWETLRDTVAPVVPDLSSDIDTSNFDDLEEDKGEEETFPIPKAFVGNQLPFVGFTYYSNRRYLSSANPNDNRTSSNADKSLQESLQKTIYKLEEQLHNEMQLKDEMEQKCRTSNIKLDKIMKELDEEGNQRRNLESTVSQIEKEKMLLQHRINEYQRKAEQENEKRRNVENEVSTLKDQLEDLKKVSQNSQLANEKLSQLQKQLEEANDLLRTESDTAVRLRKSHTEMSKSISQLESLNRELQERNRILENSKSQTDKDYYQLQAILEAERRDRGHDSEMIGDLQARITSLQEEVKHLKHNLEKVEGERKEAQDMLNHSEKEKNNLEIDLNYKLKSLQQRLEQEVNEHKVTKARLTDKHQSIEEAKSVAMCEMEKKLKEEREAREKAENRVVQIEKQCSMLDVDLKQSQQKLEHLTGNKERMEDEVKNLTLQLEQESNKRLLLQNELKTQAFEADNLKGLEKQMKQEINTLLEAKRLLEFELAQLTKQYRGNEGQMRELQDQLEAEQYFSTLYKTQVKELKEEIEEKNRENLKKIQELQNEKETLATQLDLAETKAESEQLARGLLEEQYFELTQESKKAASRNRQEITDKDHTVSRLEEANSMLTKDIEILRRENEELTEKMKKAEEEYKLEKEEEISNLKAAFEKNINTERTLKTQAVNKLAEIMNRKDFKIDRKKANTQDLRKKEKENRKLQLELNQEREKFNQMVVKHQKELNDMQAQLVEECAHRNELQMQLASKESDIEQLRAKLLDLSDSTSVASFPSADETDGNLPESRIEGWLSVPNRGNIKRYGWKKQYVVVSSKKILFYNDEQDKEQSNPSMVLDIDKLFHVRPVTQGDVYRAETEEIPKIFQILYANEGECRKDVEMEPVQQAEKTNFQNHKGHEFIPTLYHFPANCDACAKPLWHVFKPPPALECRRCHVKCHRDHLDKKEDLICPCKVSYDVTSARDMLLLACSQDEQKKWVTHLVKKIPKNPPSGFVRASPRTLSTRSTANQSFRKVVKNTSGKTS
Chain of Rho kinase 2 (O75116 whole entry): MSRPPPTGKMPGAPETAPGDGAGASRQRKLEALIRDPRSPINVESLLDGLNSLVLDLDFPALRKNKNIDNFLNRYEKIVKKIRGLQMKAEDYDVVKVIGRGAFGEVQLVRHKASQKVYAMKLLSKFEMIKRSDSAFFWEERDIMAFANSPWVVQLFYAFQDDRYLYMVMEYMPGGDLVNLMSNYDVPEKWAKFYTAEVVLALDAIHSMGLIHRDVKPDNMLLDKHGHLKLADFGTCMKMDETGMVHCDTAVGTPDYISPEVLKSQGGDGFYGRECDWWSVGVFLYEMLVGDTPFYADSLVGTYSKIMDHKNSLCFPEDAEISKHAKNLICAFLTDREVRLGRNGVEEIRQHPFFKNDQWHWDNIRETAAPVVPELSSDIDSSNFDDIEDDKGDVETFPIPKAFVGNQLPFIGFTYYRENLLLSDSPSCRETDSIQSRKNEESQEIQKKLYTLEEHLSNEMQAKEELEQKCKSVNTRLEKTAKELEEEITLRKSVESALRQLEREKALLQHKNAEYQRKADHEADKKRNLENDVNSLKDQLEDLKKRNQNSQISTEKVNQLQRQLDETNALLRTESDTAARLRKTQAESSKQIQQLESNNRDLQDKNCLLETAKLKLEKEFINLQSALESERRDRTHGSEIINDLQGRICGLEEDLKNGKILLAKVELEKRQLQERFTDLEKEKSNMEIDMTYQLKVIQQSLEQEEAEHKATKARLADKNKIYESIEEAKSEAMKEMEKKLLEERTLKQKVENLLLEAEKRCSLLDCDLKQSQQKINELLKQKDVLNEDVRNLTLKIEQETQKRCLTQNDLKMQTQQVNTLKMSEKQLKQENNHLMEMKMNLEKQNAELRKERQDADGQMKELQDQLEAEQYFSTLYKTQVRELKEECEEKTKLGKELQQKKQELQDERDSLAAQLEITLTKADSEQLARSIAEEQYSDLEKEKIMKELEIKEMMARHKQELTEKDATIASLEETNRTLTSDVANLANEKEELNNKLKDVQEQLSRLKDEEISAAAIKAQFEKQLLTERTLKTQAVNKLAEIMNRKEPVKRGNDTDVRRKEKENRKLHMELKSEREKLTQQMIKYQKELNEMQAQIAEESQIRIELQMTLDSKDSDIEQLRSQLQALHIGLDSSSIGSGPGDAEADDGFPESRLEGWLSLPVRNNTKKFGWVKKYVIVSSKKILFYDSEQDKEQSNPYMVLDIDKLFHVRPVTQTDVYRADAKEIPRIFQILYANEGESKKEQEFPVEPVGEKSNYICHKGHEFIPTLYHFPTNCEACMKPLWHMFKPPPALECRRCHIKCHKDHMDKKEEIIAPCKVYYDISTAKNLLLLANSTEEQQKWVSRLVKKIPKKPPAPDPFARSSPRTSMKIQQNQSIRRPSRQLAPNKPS

CC1=C(C(=O)Nc2ccc3cnccc3c2)C(c2ccc(Br)c(F)c2)n2nc(CO)cc2N1 (stereo not shown) [Example 55, 7-(4-bromo-3-fluorophenyl)-2-(hydroxymethyl)-N-(isoquinolin-6-yl)-5-methyl-4,7-dihydropyrazolo[1,5-a]pyrimidine-6-carboxamide]
Ki (Rho kinase 2): < 50 nM | Ki (Rho kinase 1): < 50 nM

CC1=C(C(=O)Nc2ccc3[nH]ncc3c2)C(c2ccc(C(F)(F)F)cc2)n2nc(CO)cc2N1 (single isomer, unassigned) [Example 69B, 2-(hydroxymethyl)-N-(1H-indazol-5-yl)-5-methyl-7-(4-(trifluoromethyl)phenyl)-4,7-dihydropyrazolo[1,5-a]pyrimidine-6-carboxamide]
Ki (Rho kinase 2): < 50 nM | Ki (Rho kinase 1): < 50 nM

CC1=C(C(=O)Nc2ccc3cnccc3c2)C(c2ccc(C(F)(F)F)c(F)c2F)n2nc(CN(C)C)cc2N1 (single isomer, unassigned) [Example 122b, 7-(2,3-difluoro-4-(trifluoromethyl)phenyl)-2-((dimethylamino)methyl)-N-(isoquinolin-6-yl)-5-methyl-4,7-dihydropyrazolo[1,5-a]pyrimidine-6-carboxamide]
Ki (Rho kinase 2): < 50 nM | Ki (Rho kinase 1): < 50 nM

CC1=C(C(=O)Nc2ccc3cnccc3c2)C(c2ccc(C(F)(F)F)c(F)c2)n2nc(NC(=O)COC3CCN(C)CC3)cc2N1 (stereo not shown) [Example 133, 7-(3-fluoro-4-(trifluoromethyl)phenyl)-N-(isoquinolin-6-yl)-5-methyl-2-(2-((1-methylpiperidin-4-yl)oxy)acetamido)-4,7-dihydropyrazolo[1,5-a]pyrimidine-6-carboxamide]
Ki (Rho kinase 2): < 50 nM | Ki (Rho kinase 1): < 50 nM

CC1=C(C(=O)Nc2ccc3cnccc3c2)C(c2cccc(Oc3ccccc3)c2)n2nc(CO)cc2N1 (stereo not shown) [Example 50, 2-(hydroxymethyl)-N-(isoquinolin-6-yl)-5-methyl-7-(3-phenoxyphenyl)-4,7-dihydropyrazolo[1,5-a]pyrimidine-6-carboxamide]
Ki (Rho kinase 2): < 50 nM | Ki (Rho kinase 1): 50 to 500 nM

CCOC(=O)c1cc2n(n1)C(c1ccc(Cl)cc1F)C(C(=O)Nc1ccc3[nH]ncc3c1)=C(C)N2 (single isomer, unassigned) [Example 7A, ethyl 6-((1H-indazol-5-yl)carbamoyl)-7-(4-chloro-2-fluorophenyl)-5-methyl-4,7-dihydropyrazolo[1,5-a]pyrimidine-2-carboxylate]
Ki (Rho kinase 2): < 50 nM | Ki (Rho kinase 1): < 50 nM

CC1=C(C(=O)Nc2ccc3cnccc3c2)C(c2ccc(C(F)(F)F)c(F)c2)n2nc(CN(C)CC3CCN(C)CC3)cc2N1 (single isomer, unassigned) [Example 104B, 7-(3-fluoro-4-(trifluoromethyl)phenyl)-N-(isoquinolin-6-yl)-5-methyl-2-((methyl((1-methylpiperidin-4-yl)methyl)amino)methyl)-4,7-dihydropyrazolo[1,5-a]pyrimidine-6-carboxamide]
Ki (Rho kinase 2): < 50 nM | Ki (Rho kinase 1): 50 to 500 nM

CC1=C(C(=O)Nc2ccc3[nH]ncc3c2)C(c2ccc(F)cc2)n2nnnc2N1 (single isomer, unassigned) [Example 23A, 7-(4-fluorophenyl)-N-(1H-indazol-5-yl)-5-methyl-4,7-dihydrotetrazolo[1,5-a]pyrimidine-6-carboxamide]
Ki (Rho kinase 2): < 50 nM | Ki (Rho kinase 1): < 50 nM

CC1=C(C(=O)Nc2ccc3[nH]ncc3c2)C(c2ccc(F)cc2)n2nc(C(C)(C)C)cc2N1 (stereo not shown) [Example 29, 2-(tert-butyl)-7-(4-fluorophenyl)-N-(1H-indazol-5-yl)-5-methyl-4,7-dihydropyrazolo[1,5-a]pyrimidine-6-carboxamide]
Ki (Rho kinase 2): < 50 nM | Ki (Rho kinase 1): < 50 nM

CC1=C(C(=O)Nc2ccc3cnccc3c2)C(c2cccc3c2ccn3C)n2nc(CO)cc2N1 (stereo not shown) [Example 44, 2-(hydroxymethyl)-N-(isoquinolin-6-yl)-5-methyl-7-(1-methyl-1H-indol-4-yl)-4,7-dihydropyrazolo[1,5-a]pyrimidine-6-carboxamide]
Ki (Rho kinase 2): 50 to 500 nM | Ki (Rho kinase 1): 50 to 500 nM

CC1=C(C(=O)Nc2ccc3[nH]ncc3c2)C(c2ccc(F)cc2)n2ncc(Br)c2N1 (stereo not shown) [Example 22, 3-bromo-7-(4-fluorophenyl)-N-(1H-indazol-5-yl)-5-methyl-4,7-dihydropyrazolo[1,5-a]pyrimidine-6-carboxamide]
Ki (Rho kinase 2): < 50 nM | Ki (Rho kinase 1): < 50 nM

CCOC(=O)c1cc2n(n1)C(c1cccc(OC)c1)C(C(=O)Nc1ccc3[nH]ncc3c1)=C(C)N2 (stereo not shown) [Example 6, ethyl 6-((1H-indazol-5-yl)carbamoyl)-7-(3-methoxyphenyl)-5-methyl-4,7-dihydropyrazolo[1,5-a]pyrimidine-2-carboxylate]
Ki (Rho kinase 2): 50 to 500 nM | Ki (Rho kinase 1): 50 to 500 nM

CC1=C(C(=O)Nc2ccc3[nH]ncc3c2)C(c2ccc(Cl)cc2F)n2nc(CO)cc2N1 (stereo not shown) [Example 68, 7-(4-chloro-2-fluorophenyl)-2-(hydroxymethyl)-N-(1H-indazol-5-yl)-5-methyl-4,7-dihydropyrazolo[1,5-a]pyrimidine-6-carboxamide]
Ki (Rho kinase 2): < 50 nM | Ki (Rho kinase 1): < 50 nM

CC1=C(C(=O)Nc2ccc3[nH]ncc3c2)C(c2ccc(C(F)(F)F)cc2)n2nc(CN3CCOCC3)cc2N1 (stereo not shown) [Example 107, N-(1H-indazol-5-yl)-5-methyl-2-(morpholinomethyl)-7-(4-(trifluoromethyl)phenyl)-4,7-dihydropyrazolo[1,5-a]pyrimidine-6-carboxamide]
Ki (Rho kinase 2): < 50 nM | Ki (Rho kinase 1): < 50 nM

From patent US10584128B2, “Bicyclic dihydropyrimidine-carboxamide derivatives as Rho-Kinase inhibitors” (CHIESI FARMACEUTICI S.p.A., priority 2016, dated 2020)
